In patent US20080070971A1, “Medical Use of Bilirubin and its Structural Analogues” (priority 2006, published 2008):

Assays:
[1] = biological target: T1, isocitrate dehydrogenase (ICDH) (Sus scrofa, UniProt P33198); experiment: Isocitrate dehydrogenase inhibition; type: biochemical; conditions: concentration equivalent to the moderate level of serum bilirubin (FIG. 7)
T1 construct: purchased SigmaAldrich I2516
T1 sequence (P33198 9-421): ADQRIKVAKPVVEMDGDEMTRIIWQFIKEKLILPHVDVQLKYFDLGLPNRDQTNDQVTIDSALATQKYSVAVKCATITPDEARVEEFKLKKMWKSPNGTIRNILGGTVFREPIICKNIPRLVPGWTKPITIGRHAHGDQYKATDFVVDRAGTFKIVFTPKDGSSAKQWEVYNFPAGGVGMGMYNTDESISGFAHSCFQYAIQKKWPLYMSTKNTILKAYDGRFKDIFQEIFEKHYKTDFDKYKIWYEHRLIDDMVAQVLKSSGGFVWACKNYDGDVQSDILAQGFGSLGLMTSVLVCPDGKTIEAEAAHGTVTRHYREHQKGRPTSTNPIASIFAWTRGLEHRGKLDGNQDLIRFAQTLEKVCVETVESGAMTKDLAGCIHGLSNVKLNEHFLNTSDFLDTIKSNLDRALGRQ
Procedure: NAD (Cat.#N1511), NADH (Cat. N9410), NADP (Cat.#N8610) and NADPG (Cat. #N7505), HMG-CoA (Cat.#H6132) were purchased from Sigma Aldrich (St. Louis, Mo.). NADP-linked isocitrate dehydrogenase was also obtained from SigmaAldrich (Cat.#I2516). Other liver enzymes were prepared as follows.

[2] = system: histone deacetylase (HDAC), HeLa cell lysate; experiment: Histone deacetylase (HDAC) assay; type: biochemical
Procedure: Assay of histone decaetylase (HDAC). The activity of HDAC was measured according to the procedure provided by SigmaAldrich (Histone Deacetylase Assay Kit, Cat.# CS1010). HeLa cel lysate provided by the assay kit was used as a source for HDAC activity in the inhibition testing.

[3] = system: malate dehydrogenase (MDH); experiment: Malate dehydrogenase inhibition; type: biochemical; conditions: concentration equivalent to the moderate level of serum bilirubin (FIG. 7)
[4] = system: liver cholesterol esterase; experiment: Cholesterol esterification by liver cholesterol esterase; type: biochemical
[5] = system: Human carcinoma cells; experiment: Cancer cell growth by cell counting; type: cell-based; conditions: concentrations above 10 mg/L (FIG. 10)
Procedure: Cell growth. Human carcinoma cells were cultured continuously in a medium containing ferrous sulfate, kept in a humidified incubator at 37° C. Cancer cells were seeded in triplicate at a density of 10,000 cells/3.5-cm culture dish overnight before being subjected to treatments. Growth was estimated by counting cells in a hemocytometer after staining cells with trypan blue. Cell yields from cultures maintained in seeding medium served as growth controls for computing the relative cell growth.

[6] = biological target: T2, HMG-CoA reductase (Homo sapiens, UniProt P04035); experiment: HMG-CoA reductase assay in liver microsomes; type: biochemical; conditions: 10 mg/L (FIG. 5)
T2 construct: from tissue; host or cells: liver microsomes
T2 sequence (P04035 1-888): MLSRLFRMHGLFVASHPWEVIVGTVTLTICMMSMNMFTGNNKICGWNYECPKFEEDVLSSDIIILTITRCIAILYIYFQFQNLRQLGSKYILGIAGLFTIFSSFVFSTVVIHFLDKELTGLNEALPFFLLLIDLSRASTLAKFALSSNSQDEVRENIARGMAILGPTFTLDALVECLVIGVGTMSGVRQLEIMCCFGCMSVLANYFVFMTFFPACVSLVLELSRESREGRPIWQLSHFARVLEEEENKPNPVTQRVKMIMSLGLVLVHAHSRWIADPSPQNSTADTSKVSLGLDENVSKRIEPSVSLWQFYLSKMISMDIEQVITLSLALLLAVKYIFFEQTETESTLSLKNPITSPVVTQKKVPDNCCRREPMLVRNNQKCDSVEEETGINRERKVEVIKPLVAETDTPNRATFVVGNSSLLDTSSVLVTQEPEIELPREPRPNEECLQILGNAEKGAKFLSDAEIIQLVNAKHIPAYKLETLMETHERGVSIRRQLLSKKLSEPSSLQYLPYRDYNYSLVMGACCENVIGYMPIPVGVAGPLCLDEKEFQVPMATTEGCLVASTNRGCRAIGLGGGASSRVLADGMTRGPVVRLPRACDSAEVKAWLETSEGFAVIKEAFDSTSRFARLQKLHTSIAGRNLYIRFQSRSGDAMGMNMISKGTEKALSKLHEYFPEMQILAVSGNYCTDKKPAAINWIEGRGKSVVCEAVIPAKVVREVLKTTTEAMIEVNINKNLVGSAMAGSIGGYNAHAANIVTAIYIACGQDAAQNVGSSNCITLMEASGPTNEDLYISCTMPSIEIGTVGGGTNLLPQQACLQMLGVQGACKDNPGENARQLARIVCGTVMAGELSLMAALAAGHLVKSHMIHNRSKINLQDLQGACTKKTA
Procedure: Liver microsomes, which are used to investigate cholesterol metabolism, were prepared as follows. Liver was homogenized in 50 mM Tris HCl buffer (pH 7.4), containing 0.3 M sucrose, 10 mM DTT, and 10 mM EDTA. The homogenate was centrifuged at 20,000×g for 15 min, and the supernatant was centrifuged at 100,000×g for 60 min. The resulting microsomal fraction was suspended in 3 ml of 0.1 M potassium phosphate buffer (pH 7.4), containing 1 mM EDTA and 5 mM DTT. Aliquots were immediately frozen in liquid nitrogen and stored at −20° C. until analysis.
Assay of HMG-CoA reductase. Microsomal suspensions of […], containing 5 mg protein, were preincubated for 5 min at 37° C. with […] of 0.1 M potassium phosphate buffer (pH 7.4), containing 1 mM EDTA and 12 mM glucose-6-phosphate. The assay was initiated by adding […] of cofactor-substrate solution (0.1 mM HMG-CoA, 3 mM MADPH, and 2 U/ml glucose-6-phosphate dehydrogenase). The incubation was performed at 37+ C. for 30 min and was terminated by the addition of […] of 1 M MaOH. After lactonization, the mevalonolactone was separated by thin layer chromatography. The eluate, which contained mevalonolactone, was collected in a scintillation vial. The radioactivity was then counted in a Packard 3320 scintillation spectrometer.

C=CC1=C(C)C(=Cc2[nH]c(Cc3[nH]c(C=C4NC(=O)C(C)=C4C=C)c(C)c3CCC(=O)O)c(CCC(=O)O)c2C)NC1=O [bilirubin, 2,7,13,17-tetramethyl-1,19-dioxo-3,18-divinyl-1,10,19,22,23,24-hexahydro-21H-biline-8,12-dipropanoic acid]
inhibition of isocitrate dehydrogenase [1]: strongly suppressed
50% inhibition concentration (IC50) ([2]; substrate concentration 5 μM): 16.5 µg/mL
50% inhibition concentration (IC50) ([2]; substrate concentration 50 μM): 40 µg/mL
inhibition of malate dehydrogenase [3]: strongly suppressed
inhibition of cholesterol esterification by liver cholesterol esterase [4]: inhibits
relative cell growth [5]: largely suppressed
reduction of HMG-CoA reductase activity [6]: ≤ 60%
